Consider 4 molecules from ChEMBL document CHEMBL1127719, “Synthesis and serotonergic activity of benzofuran and dihydrogenzofuran analogues of 5-carboxamidotryptamine” (Bioorg Med Chem Lett, 1994).

Test [1] concerns the target T1, 5-hydroxytryptamine receptor 3A (Rattus norvegicus, UniProt P35563).
T1 sequence (P35563 whole entry): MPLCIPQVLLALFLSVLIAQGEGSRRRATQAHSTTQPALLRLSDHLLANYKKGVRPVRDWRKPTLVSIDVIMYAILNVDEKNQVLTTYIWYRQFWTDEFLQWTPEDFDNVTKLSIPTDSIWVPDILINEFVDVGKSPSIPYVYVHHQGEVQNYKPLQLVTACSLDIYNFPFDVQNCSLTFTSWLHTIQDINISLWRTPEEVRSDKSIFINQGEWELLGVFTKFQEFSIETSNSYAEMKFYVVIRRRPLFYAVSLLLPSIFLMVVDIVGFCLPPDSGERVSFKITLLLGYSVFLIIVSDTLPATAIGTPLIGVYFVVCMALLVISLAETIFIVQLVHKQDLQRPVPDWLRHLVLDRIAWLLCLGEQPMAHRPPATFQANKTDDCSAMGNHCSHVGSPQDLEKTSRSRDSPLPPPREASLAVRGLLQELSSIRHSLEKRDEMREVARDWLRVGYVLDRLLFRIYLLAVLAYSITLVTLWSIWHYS
The test can be described thus: In Vitro Binding affinity againist 5-hydroxytryptamine 3 receptor by displacing [3H]-Q-ICS 205-930 from rat cortex homogenates.

In test [2] the target is 5-hydroxytryptamine receptor 2A (Rattus norvegicus, UniProt P14842). The test can be described thus: In Vitro Binding affinity againist 5-HT2A receptor by displacing [3H]-DOB from rat cortex homogenates.
Sequence of 5-hydroxytryptamine receptor 2A (P14842 whole entry): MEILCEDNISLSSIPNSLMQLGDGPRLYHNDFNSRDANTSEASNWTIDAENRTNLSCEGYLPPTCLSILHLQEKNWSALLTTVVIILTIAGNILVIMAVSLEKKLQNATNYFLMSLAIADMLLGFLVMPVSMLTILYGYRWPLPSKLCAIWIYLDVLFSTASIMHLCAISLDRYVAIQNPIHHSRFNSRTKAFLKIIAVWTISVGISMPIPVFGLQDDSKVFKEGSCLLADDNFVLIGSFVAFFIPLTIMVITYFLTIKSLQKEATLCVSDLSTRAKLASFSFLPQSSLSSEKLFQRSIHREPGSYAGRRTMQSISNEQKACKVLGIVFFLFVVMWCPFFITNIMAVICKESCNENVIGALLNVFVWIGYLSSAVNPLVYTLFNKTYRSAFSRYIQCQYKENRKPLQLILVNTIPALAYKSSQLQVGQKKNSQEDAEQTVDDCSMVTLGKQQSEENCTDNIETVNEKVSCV
The species named for test [3] is Oryctolagus cuniculus. The test is described as follows: Relative maximum in rabbit by obtaining the maximum contraction relative to the maximum response with 1 uM 5-HT. The format is functional.
For test [4], the species on record is Oryctolagus cuniculus. The test can be described thus: In Vitro functional activity in rabbit saphenous vein.

What is called IC50 is the concentration at which inhibition is half-maximal. Read a high IC50 as weaker potency in that assay. As for `CN(C)CCc1coc2ccc(C(N)=O)cc12`, the IC50 in test [1] was 3.98 µM; in test [2], 3.39 µM.

Broadly, the EC50 is the concentration that produces a half-maximal response. Higher therefore signals a need for much substance. `NCCc1c[nH]c2ccc(C(N)=O)cc12` gave an Activity in test [3] of 1.06. The same molecule gave an EC50 in test [4] of 0.0282 µM. The IC50 in test [2] is 21.9 µM.

In the case of `NCCC1COc2ccc(C(N)=O)cc21` (stereo unspecified), the values for the IC50 in test [1] and in test [2] were 4.27 µM and greater than 10 µM, respectively.

As to `NCCc1coc2ccc(C(N)=O)cc12`, the IC50 in test [1] was 7.41 µM; in test [2], 1.7 µM. This molecule registered an Activity in test [3] of 1.2. In addition, the EC50 in test [4] was 0.158 µM.
